# Experimental data: ChEMBL document CHEMBL4041522, “Comprehensive review on various strategies for antimalarial drug discovery” (2017)
# How the values were obtained:
# Format in all cases: functional
# [1] = In vivo antiparasitic activity against Toxoplasma sp. assessed as fever clearance time
# [2] = In vivo antiparasitic activity against Pneumocystis sp. assessed as parasite clearance time
# [3] = In vivo antiparasitic activity against Babesia sp. assessed as fever clearance time
# [4] = tested on: Plasmodium; experiment: In vivo antiparasitic activity against Plasmodium sp. assessed as parasite clearance time
# [5] = In vivo antiparasitic activity against Toxoplasma sp. assessed as parasite clearance time
# [6] = In vivo antiparasitic activity against Babesia sp. assessed as parasite clearance time
# [7] = In vivo antiparasitic activity against Pneumocystis sp. assessed as fever clearance time
# [8] = tested on: Plasmodium; experiment: In vivo antiparasitic activity against Plasmodium sp. assessed as fever clearance time
smiles,measurement,setting,value
CCC[C@@H]1C[C@@H](C(=O)N[C@@H]([C@H]2O[C@H](SC)[C@H](O)[C@@H](O)[C@H]2O)[C@H](C)Cl)N(C)C1 [CLINDAMYCIN],Time,[1],3 to 5 days
same,Time,[2],4 to 6 days
same,Time,[3],3 to 5 days
same,Time,[4],4 to 6 days
same,Time,[5],4 to 6 days
same,Time,[6],4 to 6 days
same,Time,[7],3 to 5 days
same,Time,[8],3 to 5 days
